Results: article PMC6397271 (Scientific Reports, 2019)
Values after ≈ are worked out from the molar mass of the structure shown. Where two headings read alike, the source gives them in different places.

What was measured:
S. aureus MRSA 12673 = assay: microbe, parasite or virus in culture; format: cell-based, Staphylococcus aureus; conditions: for MIC: raw MIC
From the text: (§1) Three bacterial strains of MRSA (N315, 12673, 6347) and two of Enterococcus spp. (E. faecium, E. faecalis) were used. With respect to MRSA, N315 represented a reference Van-susceptible strain (GenBank GCA_00000645.1) isolated from a patient while 12673 (Van-intermediately susceptible) and 6347 (a h-VISA which appears at frequency of <10^−5 to 10^−6 is composed of two subpopulations of bacteria: one susceptible and one intermediately resistant)[38] were clinical strains obtained from patients of The Clinical University Centre of Gdańsk (UCK). […] The clinical strain isolates originated from the collection of the Department of Pharmaceutical Technology and Biochemistry, Faculty of Chemistry, Gdańsk University of Technology.
(§2) The strains were grown in Mueller-Hinton broth (MH cation-adjusted, Becton Dickinson) or Brain Heart Infusion broth (BHI, Becton Dickinson), respectively. The cultivation was carried out in an aerobic atmosphere at 37 °C for 24 hours and, afterwards, the bacterial cultures were diluted in geometric progression with a proper broth. Next, 100 µl of each dilution was inoculated in an agar plate and incubated at 37 °C for 24 h. The next procedures included determination of Colony Forming Units (CFU)/ml and minimal inhibitory concentration (MIC) of the compounds in question. The latter procedure was carried out according to the microbroth dilution technique using 96-well plates. The MICs were evaluated by using the metabolic assay based on the resazurin dye. The assay was performed in triplicates.

S. aureus MRSA N315 = assay: microbe, parasite or virus in culture; format: cell-based, Staphylococcus aureus
From the text: as §1, §2

[1] = tested on: S. aureus MRSA hetero-VISA 6347; assay: microbe, parasite or virus in culture; format: cell-based, Staphylococcus aureus; conditions: for MIC: raw MIC
From the text: as §1, §2

[2] = tested on: Enterococcus faecalis 3937158; assay: microbe, parasite or virus in culture; format: cell-based; conditions: for MIC: raw MIC
From the text: as §1, §2

[3] = tested on: Enterococcus faecium 3934825; assay: microbe, parasite or virus in culture; format: cell-based; conditions: for MIC: raw MIC
From the text: as §1, §2

sheep erythrocytes = assay: Erythrocyte lysis assay; format: cell-based; conditions: 37 °C, 1 hour, A450 nm; for cell lysis (haemolysis): 10^8 cells/ml, vs 4% Triton X-100, triplicates
Protocol: The protocol of the lysis assay is presented below.
To obtain sheep erythrocytes, 5 ml of fresh blood was centrifuged at 1000 × g for 10 min and washed 3 times with 0.9% NaCl. Cell suspension (final concentration of 10^8 cells/ml) in a volume of 75 µl was added to each well of the 96-well microtiter plate and incubated at 37 °C in the presence of the tested compounds. The range of their concentrations was 100–0.049 µM (diluted in saline solution), which included that of MIC values for the tested strains of the bacteria.
Plates with samples were incubated at 37 °C for 1 hour and then centrifuged at 1000 × g for 10 min to separate the unlysed erythrocytes. Next, the supernatant was transferred to a new plate. The absorbance (A) was measured spectrophotometrically at 450 nm of wavelength. The experiments were performed in triplicates.
The haemolysis percentage was calculated according to the equation presented by Sharma et al.[43]. The percentage of haemolysis = [(A450nm of test compound treated sample-A450nm of buffer treated sample)/(A450nm of 4%TritonX-100 treated samples-A450nm of buffer treated sample)] × 100.

[4] = first block, test a, repetition 1, read-out: MIC1a
[5] = first block, test a, repetition 2, read-out: MIC2a
[6] = first block, test a, repetition 3, read-out: MIC3a
[7] = first block, test b, repetition 1, read-out: MIC1b
[8] = first block, test b, repetition 2, read-out: MIC2b
[9] = first block, test b, repetition 3, read-out: MIC3b
[10] = test a, repetition 1, read-out: MIC1a
[11] = test a, repetition 2, read-out: MIC2a
[12] = test a, repetition 3, read-out: MIC3a
[13] = test b, repetition 1, read-out: MIC1b
[14] = test b, repetition 2, read-out: MIC2b
[15] = test b, repetition 3, read-out: MIC3b
[16] = same test as μM value, mean ± SD

`CC[C@H](C)[C@H](NC(=O)[C@H](CCCCN)NC(=O)[C@H](CCCCN)NC(=O)[C@H](C)NC(=O)[C@H](CC(C)C)NC(=O)[C@H](C)NC(=O)[C@H](C)NC(=O)[C@H](CC(C)C)NC(=O)[C@H](C)NC(=O)[C@H](CCCCN)NC(=O)[C@H](CC(C)C)NC(=O)[C@H](CC(N)=O)NC(=O)[C@@H](NC(=O)[C@H](CCCCN)NC(=O)CNC(=O)[C@H](CC(C)C)NC(=O)[C@H](CC(C)C)NC(=O)[C@H](Cc1ccc(O)cc1)NC(=O)CNC(=O)[C@H](C)NC(=O)c1cn(CCOCCOCCOCCNC(=O)[C@H]2NC(=O)[C@H]3NC(=O)[C@H](NC(=O)[C@@H]4NC(=O)[C@H](CC(N)=O)NC(=O)[C@H](NC(=O)[C@@H](CC(C)C)NC)[C@H](O)c5ccc(c(Cl)c5)Oc5cc4cc(c5O[C@@H]4O[C@H](CO)[C@@H](O)[C@H](O)[C@H]4O[C@H]4C[C@](C)(N)[C@H](O)[C@H](C)O4)Oc4ccc(cc4Cl)[C@H]3O)c3ccc(O)c(c3)-c3c(O)cc(O)cc32)nn1)[C@@H](C)CC)C(=O)N[C@@H](CC(C)C)C(N)=O` [conjugate I, Van-PEG3-TP10] showed an MIC (S. aureus MRSA 12673; [4]) of 1.56 µM (≈ 6.06 µg/mL), an MIC (S. aureus MRSA 12673; [5]) of 3.12 µM (≈ 12.1 µg/mL) and an MIC (S. aureus MRSA 12673; [6]) of 1.56 µM (≈ 6.06 µg/mL). The MIC (S. aureus MRSA 12673; [7]) was 1.56 µM (≈ 6.06 µg/mL), the MIC (S. aureus MRSA 12673; [8]) was 3.12 µM (≈ 12.1 µg/mL) and the MIC (S. aureus MRSA 12673; [9]) was 3.12 µM (≈ 12.1 µg/mL). The MIC (S. aureus MRSA 12673; [10]) was 6.06 µM (≈ 23.5 µg/mL), the MIC (S. aureus MRSA 12673; [11]) was 6.06 µM (≈ 23.5 µg/mL) and the MIC (S. aureus MRSA 12673; [12]) was 6.06 µM (≈ 23.5 µg/mL). For the same compound, the MIC (S. aureus MRSA 12673; [13]) was 6.06 µM (≈ 23.5 µg/mL), the MIC (S. aureus MRSA 12673; [14]) was 12.12 µM (≈ 47.1 µg/mL) and the MIC (S. aureus MRSA 12673; [15]) was 12.12 µM (≈ 47.1 µg/mL). The “MIC in (μg/ml)” value (S. aureus MRSA 12673; [16]) was 6.1 ± 3.1 µg/mL (≈ 1.57 µM), the “MIC” value (S. aureus MRSA N315; microbroth dilution, 96-well, resazurin, 37 °C, 24 h, mean ± SD, at least three independent experiments in triplicates) was 1.6 ± 0.9 µM (≈ 6.21 µg/mL) and the MIC (S. aureus MRSA N315; microbroth dilution, 96-well, resazurin, 37 °C, 24 h, mean ± SD, at least three independent experiments in triplicates, read-out: MIC) was 1.6 µM (≈ 6.21 µg/mL). For the same compound, the MIC (S. aureus MRSA N315; raw MIC, first block, test a, repetition 1, read-out: MIC1a) was 1.56 µM (≈ 6.06 µg/mL), the MIC (S. aureus MRSA N315; raw MIC, first block, test a, repetition 2, read-out: MIC2a) was 3.12 µM (≈ 12.1 µg/mL) and the MIC (S. aureus MRSA N315; raw MIC, first block, test a, repetition 3, read-out: MIC3a) was 1.56 µM (≈ 6.06 µg/mL). For the same compound, the MIC (S. aureus MRSA N315; raw MIC, first block, test b, repetition 1, read-out: MIC1b) was 3.125 µM (≈ 12.1 µg/mL), the MIC (S. aureus MRSA N315; raw MIC, first block, test b, repetition 2, read-out: MIC2b) was 1.56 µM (≈ 6.06 µg/mL) and the MIC (S. aureus MRSA N315; raw MIC, first block, test b, repetition 3, read-out: MIC3b) was 1.56 µM (≈ 6.06 µg/mL). The MIC (S. aureus MRSA N315; raw MIC, test a, repetition 1, read-out: MIC1a) was 6.06 µM (≈ 23.5 µg/mL), the MIC (S. aureus MRSA N315; raw MIC, test a, repetition 2, read-out: MIC2a) was 12.12 µM (≈ 47.1 µg/mL) and the MIC (S. aureus MRSA N315; raw MIC, test a, repetition 3, read-out: MIC3a) was 6.06 µM (≈ 23.5 µg/mL). The MIC (S. aureus MRSA N315; raw MIC, test b, repetition 1, read-out: MIC1b) was 6.06 µM (≈ 23.5 µg/mL), the MIC (S. aureus MRSA N315; raw MIC, test b, repetition 2, read-out: MIC2b) was 6.06 µM (≈ 23.5 µg/mL) and the MIC (S. aureus MRSA N315; raw MIC, test b, repetition 3, read-out: MIC3b) was 6.06 µM (≈ 23.5 µg/mL). The “MIC in (μg/ml)” value (S. aureus MRSA N315; [16]) was 6.1 ± 2.5 µg/mL (≈ 1.57 µM), the MIC [1, 4] was 1.56 µM (≈ 6.06 µg/mL) and the MIC [1, 5] was 1.56 µM (≈ 6.06 µg/mL). It also gave an MIC [1, 6] of 0.78 µM (≈ 3.03 µg/mL), an MIC [1, 7] of 1.56 µM (≈ 6.06 µg/mL) and an MIC [1, 8] of 1.56 µM (≈ 6.06 µg/mL). It also gave an MIC [1, 9] of 1.56 µM (≈ 6.06 µg/mL), an MIC [1, 10] of 6.06 µM (≈ 23.5 µg/mL) and an MIC [1, 11] of 6.06 µM (≈ 23.5 µg/mL). For the same compound, the MIC [1, 12] was 3.03 µM (≈ 11.8 µg/mL), the MIC [1, 13] was 6.06 µM (≈ 23.5 µg/mL) and the MIC [1, 14] was 6.06 µM (≈ 23.5 µg/mL). For the same compound, the MIC [1, 15] was 6.06 µM (≈ 23.5 µg/mL), the “MIC in (μg/ml)” value [1, 16] was 6.1 ± 1.2 µg/mL (≈ 1.57 µM) and the MIC [2, 4] was 6.25 µM (≈ 24.3 µg/mL). The MIC [2, 5] was 3.1 µM (≈ 12 µg/mL), the MIC [2, 6] was 6.25 µM (≈ 24.3 µg/mL) and the MIC [2, 7] was 6.25 µM (≈ 24.3 µg/mL). The MIC [2, 8] was 6.25 µM (≈ 24.3 µg/mL), the MIC [2, 9] was 3.1 µM (≈ 12 µg/mL) and the MIC [2, 10] was 24.27 µM (≈ 94.2 µg/mL). The MIC [2, 11] was 12.14 µM (≈ 47.1 µg/mL), the MIC [2, 12] was 24.27 µM (≈ 94.2 µg/mL) and the MIC [2, 13] was 24.27 µM (≈ 94.2 µg/mL). For the same compound, the MIC [2, 14] was 24.27 µM (≈ 94.2 µg/mL), the MIC [2, 15] was 12.14 µM (≈ 47.1 µg/mL) and the “MIC in (μg/ml)” value [2, 16] was 24.3 ± 6.3 µg/mL (≈ 6.26 µM). It also gave an MIC [3, 4] of 50 µM (≈ 194 µg/mL), an MIC [3, 5] of 50 µM (≈ 194 µg/mL) and an MIC [3, 6] of 50 µM (≈ 194 µg/mL). The MIC [3, 7] was 25 µM (≈ 97.1 µg/mL), the MIC [3, 8] was 50 µM (≈ 194 µg/mL) and the MIC [3, 9] was 50 µM (≈ 194 µg/mL). For the same compound, the MIC [3, 10] was 194.2 µM (≈ 754 µg/mL), the MIC [3, 11] was 194.2 µM (≈ 754 µg/mL) and the MIC [3, 12] was 194.2 µM (≈ 754 µg/mL). The MIC [3, 13] was 97.1 µM (≈ 377 µg/mL), the MIC [3, 14] was 194.2 µM (≈ 754 µg/mL) and the MIC [3, 15] was 194.2 µM (≈ 754 µg/mL). For the same compound, the “MIC in (μg/ml)” value [3, 16] was 194.2 ± 39.6 µg/mL (≈ 50 µM), the “cell lysis (haemolysis)” value (sheep erythrocytes; 12.5 µM) was 15% and the “cell lysis (haemolysis)” value (sheep erythrocytes; 100 µM) was 93%. For the same compound, the “hemolysis at MIC concentrations” value (sheep erythrocytes; 6.25–0.78 μM) was “lack of hemolysis”.
